These results are taken from PMC5371824, “Phosphatidylinositol (4,5)-bisphosphate dynamically regulates the K2P background K^+ channel TASK-2” (Scientific Reports, 2017).

Common to all, as to format: biochemical
Assay [1] deals with T1, TASK-2 (Mus musculus, UniProt F6V9U5).
T1 construct: expressed in transfected cells; host or cells: HEK-293
T1 sequence (F6V9U5 1-502): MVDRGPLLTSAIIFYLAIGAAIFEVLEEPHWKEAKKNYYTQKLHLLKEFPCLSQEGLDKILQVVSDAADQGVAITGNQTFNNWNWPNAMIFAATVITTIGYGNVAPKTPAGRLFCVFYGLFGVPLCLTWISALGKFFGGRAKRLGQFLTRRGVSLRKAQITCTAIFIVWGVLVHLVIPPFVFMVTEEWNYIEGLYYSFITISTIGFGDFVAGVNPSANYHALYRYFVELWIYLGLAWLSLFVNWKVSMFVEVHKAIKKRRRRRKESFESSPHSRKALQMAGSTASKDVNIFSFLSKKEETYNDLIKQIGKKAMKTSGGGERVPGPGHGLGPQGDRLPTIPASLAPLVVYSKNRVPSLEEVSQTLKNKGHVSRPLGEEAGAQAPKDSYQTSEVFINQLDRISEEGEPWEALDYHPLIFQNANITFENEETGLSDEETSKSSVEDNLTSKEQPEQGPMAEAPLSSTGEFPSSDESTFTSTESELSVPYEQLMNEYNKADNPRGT
Kind of assay: Excised inside-out patch recording from HEK-293 cells over-expressing TASK-2. The conditions noted are these: 1 mM, inside-out patch.
Description: Recordings in the inside-out isolated patch configuration were performed in the gap-free mode at −60 mV. The inside aspect of the patch was bathed with a solution containing in mM: 10 KCl, 10 Glucose, 1 MgCl2, 10 EGTA, 1 Na3ATP, 0.1 GTP, 6.8 g/100 ml Sucrose, 10 Hepes/Tris, pH 7.4. The pipette contained in mM: 140 KCl, 10 Glucose, 6.8 g/100 ml Sucrose, 10 Hepes/Tris pH 7.4. For isolated patches, borosilicate capillaries (Harvard Apparatus GC150F-10 1.5 ODx0.86 ID) were fire polished to 4–5 MΩ and covered in beeswax. Acquisition was at 10 kHz with filter at 3 kHz (4-pole Bessel) and analysis was done with Clampfit 9.0 (Axon Instruments, Foster City, CA, USA). Traces shown are prints from crude Clampfit screen shots and quantification was done using the average currents were calculated at intervals using Clampfit after baseline adjustment.

Assay [2] deals with T2, TASK-2-K297C (Mus musculus, UniProt F6V9U5, K297C).
T2 construct: expressed in transfected cells; host or cells: HEK-293
T2 sequence (F6V9U5 1-502 K297C): T1 sequence (F6V9U5 1-502) with K297C
The assay can be described thus: Excised inside-out patch recording, TASK-2-K297C mutant. Further details: key to MTSET effect: ✓ under “MTSET effect” indicates a significant increase in current after treatment with the methanesulfonate reagent; — in all cases stands for no significant effect. As to the method: (§1) Figure 6 Scanning of potential sites of interaction of TASK-2 with PI(4,5)P2 by cysteine mutagenesis of intracellular basic residues. (A) Schematic representation of TASK-2 topology showing the sequences of segments of the protein predicted to be intracellular or intracellular-facing. Basic residues are highlighted in red. (B) Recording from an excised inside-out patch of membrane taken from a HEK-293 cell over-expressing TASK-2. The patch was held at −60 mV in the presence of 1 mM ATP. At the intervals indicated by the boxes the intracellular aspect of the membrane was exposed to 300 μM Neomycin and then to 100 μM TPeA. At the end of the TPeA period the patch was additionally exposed to 1 mM MTSET as shown by the black box. (C and D) experiments as in (B), but with inside-out membrane patches obtained from cells expressing the mutants TASK-2-H327C and TASK-2-K297C respectively. In D the reducing agent DTT was also added at 2 mM. (E) Summary of experiments comparing the current before and after treatment with MTSET.
Mus musculus TASK-2 (GenBank accession No. AF319542) plasmid was that obtained from mouse kidney. The cDNAs was subcloned into the pCR3.1 vector. Mutations were made by site-directed mutagenesis into the pCR3.1 vector as previously described[69] and confirmed by sequencing. HEK-293 cells were cultured in Dulbecco’s modified Eagle’s medium (DMEM) and F12 Ham’s medium at a 1:1 ratio and supplemented with 10% fetal calf serum at 37 °C in 5% CO2. For electrophysiological experiments, transient transfections were performed by electroporation, using CD8 cotransfection to identify effectively transfected cells. […] Experiments were performed 4–8 h after electroporation. […]
(§2) Recordings in the inside-out isolated patch configuration were performed in the gap-free mode at −60 mV. […] Traces shown are prints from crude Clampfit screen shots and quantification was done using the average currents were calculated at intervals using Clampfit after baseline adjustment.

Assay [3] deals with T3, TASK-2-K254C (Mus musculus, UniProt F6V9U5, K254C).
T3 construct: expressed in transfected cells; host or cells: HEK-293
T3 sequence (F6V9U5 1-502 K254C): T1 sequence (F6V9U5 1-502) with K254C
Kind of assay: Excised inside-out patch recording, TASK-2-K254C mutant. Also noted: key to MTSET effect: ✓ under “MTSET effect” indicates a significant increase in current after treatment with the methanesulfonate reagent; — in all cases stands for no significant effect. As to the method: as §1, with “MTSET. […]” for “MTSET.”
as §2

Setting [4] is: 1 mM, in the presence of TPeA, inside-out patch.

Positions count from the first letter of the chain named.

Consider `C[N+](C)(C)CCSS(C)(=O)=O.[Cl-]` [MTSET, [2-(trimethylammonium)ethyl] methanethiosulfonate chloride], for which the “Effect of MTSET on WT TASK-2 channel activity” value in assay [1] (brief intracellular exposure in the presence of TPeA) is given as “Neither WT nor H327C channel activity is affected”. For the same molecule, the “Effect of MTSET on WT TASK-2 activity” value in assay [1] (without TPeA, 1 mM ATP, Fig. S4) is on record as “markedly reduced”. For the same molecule, the “Effect of MTSET on TASK-2-K297C activity” value in assay [2] (setting [4]) was “markedly enhanced”. In addition, the MTSET effect result in assay [2] (mutation K297C) and in assay [3] (mutation K254C) was “✓” in each case. Besides, in assay [3] (setting [4]), the “Effect of MTSET on TASK-2-K254C activity” value is “significantly activated”.
